Test results published in patent US12441726B2, “Compounds and uses thereof” (Foghorn Therapeutics Inc., priority 2020, dated 2025).
pIC50: −log10 of the molar value.

Legend:
[1] = target: BRG-1 (Homo sapiens, UniProt P51532); test: ATPase catalytic activity assay (ADP-Glo), BRG-1; details: for Emax: 1 h, read-out: BRG1 Max % Inhibition, ADP-Glo, 30 nM BRG-1, 400 μM ATP
[2] = target: BRM (Homo sapiens, UniProt P51531); test: ATPase catalytic activity assay (ADP-Glo), BRM; details: 30 nM BRM, 400 μM ATP; for IC50: BRM ATPase: IC50 (uM)
Sequence of BRM (P51531 whole entry): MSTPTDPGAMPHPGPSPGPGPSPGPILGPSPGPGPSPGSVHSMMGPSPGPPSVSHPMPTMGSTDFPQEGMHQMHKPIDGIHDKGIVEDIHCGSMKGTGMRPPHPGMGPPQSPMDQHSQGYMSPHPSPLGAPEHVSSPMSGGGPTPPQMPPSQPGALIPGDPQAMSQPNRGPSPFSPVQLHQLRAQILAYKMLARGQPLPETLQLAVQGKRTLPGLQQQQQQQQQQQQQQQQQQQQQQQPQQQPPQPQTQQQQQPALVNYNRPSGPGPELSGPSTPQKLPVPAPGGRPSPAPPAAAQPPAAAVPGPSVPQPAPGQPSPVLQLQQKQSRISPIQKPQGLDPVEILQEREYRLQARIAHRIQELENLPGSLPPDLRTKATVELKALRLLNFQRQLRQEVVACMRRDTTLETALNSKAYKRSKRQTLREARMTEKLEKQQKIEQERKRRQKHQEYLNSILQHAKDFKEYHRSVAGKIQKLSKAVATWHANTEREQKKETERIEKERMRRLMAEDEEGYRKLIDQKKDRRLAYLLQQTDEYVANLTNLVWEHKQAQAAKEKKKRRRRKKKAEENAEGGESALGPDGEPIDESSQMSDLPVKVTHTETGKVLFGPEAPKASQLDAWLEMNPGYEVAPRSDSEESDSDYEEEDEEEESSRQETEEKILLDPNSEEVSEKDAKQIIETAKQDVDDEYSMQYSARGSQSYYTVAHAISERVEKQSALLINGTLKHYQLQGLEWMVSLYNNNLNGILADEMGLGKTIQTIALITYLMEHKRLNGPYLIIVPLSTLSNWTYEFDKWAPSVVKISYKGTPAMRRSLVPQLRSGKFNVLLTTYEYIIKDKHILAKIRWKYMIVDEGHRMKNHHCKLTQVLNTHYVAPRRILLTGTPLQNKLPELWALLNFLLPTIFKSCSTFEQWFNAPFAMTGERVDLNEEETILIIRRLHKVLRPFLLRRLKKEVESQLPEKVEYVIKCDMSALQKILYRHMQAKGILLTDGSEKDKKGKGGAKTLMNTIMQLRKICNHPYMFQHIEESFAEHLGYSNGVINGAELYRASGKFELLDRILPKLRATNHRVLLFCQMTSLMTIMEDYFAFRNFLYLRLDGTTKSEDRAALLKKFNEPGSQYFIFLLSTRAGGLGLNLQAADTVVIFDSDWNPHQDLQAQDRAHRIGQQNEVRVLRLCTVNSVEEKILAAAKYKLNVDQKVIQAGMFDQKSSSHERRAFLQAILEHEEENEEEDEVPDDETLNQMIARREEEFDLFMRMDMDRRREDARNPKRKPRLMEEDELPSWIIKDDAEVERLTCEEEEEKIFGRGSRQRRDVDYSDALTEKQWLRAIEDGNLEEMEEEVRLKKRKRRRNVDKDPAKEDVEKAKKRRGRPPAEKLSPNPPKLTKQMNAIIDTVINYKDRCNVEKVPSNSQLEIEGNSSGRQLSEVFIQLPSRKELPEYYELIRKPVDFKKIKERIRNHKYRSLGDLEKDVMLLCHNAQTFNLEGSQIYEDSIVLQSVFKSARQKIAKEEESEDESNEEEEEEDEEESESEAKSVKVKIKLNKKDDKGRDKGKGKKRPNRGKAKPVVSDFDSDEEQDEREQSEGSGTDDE

Sequence of BRG-1 (P51532 whole entry): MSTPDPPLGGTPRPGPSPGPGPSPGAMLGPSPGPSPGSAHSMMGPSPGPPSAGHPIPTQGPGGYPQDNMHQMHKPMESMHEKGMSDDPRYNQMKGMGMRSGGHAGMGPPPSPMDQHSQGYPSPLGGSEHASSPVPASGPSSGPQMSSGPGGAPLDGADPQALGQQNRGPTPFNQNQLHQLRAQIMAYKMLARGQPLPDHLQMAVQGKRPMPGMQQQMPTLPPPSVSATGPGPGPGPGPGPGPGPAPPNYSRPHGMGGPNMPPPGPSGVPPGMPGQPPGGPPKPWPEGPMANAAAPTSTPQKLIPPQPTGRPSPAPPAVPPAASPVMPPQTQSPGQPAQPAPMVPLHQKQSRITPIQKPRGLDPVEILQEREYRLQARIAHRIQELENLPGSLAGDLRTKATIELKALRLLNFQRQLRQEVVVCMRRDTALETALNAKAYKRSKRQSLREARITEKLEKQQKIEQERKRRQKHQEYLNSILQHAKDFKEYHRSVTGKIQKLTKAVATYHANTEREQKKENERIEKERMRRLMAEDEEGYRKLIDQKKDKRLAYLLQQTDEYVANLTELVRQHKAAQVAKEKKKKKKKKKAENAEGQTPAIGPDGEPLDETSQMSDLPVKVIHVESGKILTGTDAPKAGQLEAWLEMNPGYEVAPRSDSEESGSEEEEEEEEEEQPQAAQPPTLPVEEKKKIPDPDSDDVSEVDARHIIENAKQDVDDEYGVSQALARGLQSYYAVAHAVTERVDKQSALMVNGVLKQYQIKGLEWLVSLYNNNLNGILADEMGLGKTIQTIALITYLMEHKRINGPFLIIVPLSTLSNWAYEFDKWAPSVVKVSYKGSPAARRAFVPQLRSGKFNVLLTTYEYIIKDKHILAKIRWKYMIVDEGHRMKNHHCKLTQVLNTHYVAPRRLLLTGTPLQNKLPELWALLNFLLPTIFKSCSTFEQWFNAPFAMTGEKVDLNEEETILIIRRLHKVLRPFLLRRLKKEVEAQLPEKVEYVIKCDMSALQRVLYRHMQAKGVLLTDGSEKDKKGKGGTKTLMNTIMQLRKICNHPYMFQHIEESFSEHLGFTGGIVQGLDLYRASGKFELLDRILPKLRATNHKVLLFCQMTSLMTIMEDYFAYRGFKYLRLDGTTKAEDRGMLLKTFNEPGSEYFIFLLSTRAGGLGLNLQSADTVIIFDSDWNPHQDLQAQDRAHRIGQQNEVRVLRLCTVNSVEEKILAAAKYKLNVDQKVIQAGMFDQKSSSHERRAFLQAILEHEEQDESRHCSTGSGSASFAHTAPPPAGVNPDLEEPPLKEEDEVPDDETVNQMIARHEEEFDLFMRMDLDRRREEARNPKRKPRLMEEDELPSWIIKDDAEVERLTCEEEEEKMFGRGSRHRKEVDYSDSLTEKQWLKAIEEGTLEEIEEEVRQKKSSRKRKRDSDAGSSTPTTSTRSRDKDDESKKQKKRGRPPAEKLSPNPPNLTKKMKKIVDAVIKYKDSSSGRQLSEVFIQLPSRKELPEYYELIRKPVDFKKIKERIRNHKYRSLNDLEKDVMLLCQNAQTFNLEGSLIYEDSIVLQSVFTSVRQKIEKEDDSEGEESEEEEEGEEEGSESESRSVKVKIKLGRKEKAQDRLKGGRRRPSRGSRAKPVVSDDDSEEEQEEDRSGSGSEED

In the case of `C[C@@]1(C#N)COCc2ccc(C(=O)NCc3cc4nc(-c5cccc(C6(O)CC6)n5)ccc4cn3)cc21` [Compound 384], the pIC50 [1] was over 7.00, the Emax [1] was 100% and the “BRM Max % Inhibition” value [2] was 101%. The IC50 [2] was under 0.1 µM.

In the case of `C[C@@]1(C#N)COCc2ccc(C(=O)NCc3cc4nc(-c5cccc(N6CCC6=O)n5)ccc4cn3)cc21` [Compound 392], the pIC50 [1] was 6.30 to 7.00, the Emax [1] was 95% and the “BRM Max % Inhibition” value [2] was 100%. For the same molecule, the IC50 [2] was under 0.1 µM.

With `C[C@@]1(C#N)COCc2ccc(C(=O)NCc3cc4nc(-c5cccc(N6CCC6=O)c5)ccc4cn3)cc21` [Compound 393] the pIC50 [1] was over 7.00, the Emax [1] was 96% and the “BRM Max % Inhibition” value [2] was 99%. The IC50 [2] was under 0.1 µM.

With `COCC1CN(c2cncc(-c3ccc4cnc(CNC(=O)c5ccc6c(c5)[C@](C)(C#N)COC6)cc4n3)n2)C1` [Compound 394] the pIC50 [1] was 6.30 to 7.00, the Emax [1] was 93% and the “BRM Max % Inhibition” value [2] was 101%. The IC50 [2] was under 0.1 µM.

For `C[C@@]1(F)COCc2ncc(C(=O)NCc3cc4nc(-c5cncc(N6CCC6)n5)ccc4cn3)cc21` [Compound 395], the pIC50 [1] was 6.00 to 6.30, the Emax [1] was 62% and the “BRM Max % Inhibition” value [2] was 92%. It also gave an IC50 [2] of 0.1 to 0.5 µM.

For `CC(=O)N(C)c1cccc(-c2ccc3cnc(CNC(=O)c4ccc5c(c4)[C@](C)(C#N)COC5)cc3n2)n1` [Compound 396], the pIC50 [1] was under 6.00, the Emax [1] was 32% and the “BRM Max % Inhibition” value [2] was 74%. For the same molecule, the IC50 [2] was 0.1 to 0.5 µM.

With `C[C@@]1(C#N)COCc2ccc(C(=O)NCc3cc4nc(-c5ccnc(C6CCOCC6)n5)ccc4cn3)cc21` [Compound 397] the pIC50 [1] was 6.00 to 6.30, the Emax [1] was 66% and the “BRM Max % Inhibition” value [2] was 93%. It also gave an IC50 [2] of 0.1 to 0.5 µM.

With `C[C@@]1(F)COCc2c(F)cc(C(=O)NCc3cc4nc(-c5cncc(N6CCC6)n5)ccc4cn3)cc21` [Compound 398] the pIC50 [1] was 6.30 to 7.00, the Emax [1] was 91% and the “BRM Max % Inhibition” value [2] was 98%. The IC50 [2] was under 0.1 µM.

With `C[C@@]1(C#N)COCc2c(F)cc(C(=O)NCc3cc4nc(-c5cncc(N6CCC6)n5)ccc4cn3)cc21` [Compound 399] the pIC50 [1] was 6.30 to 7.00, the Emax [1] was 98% and the “BRM Max % Inhibition” value [2] was 100%. It also gave an IC50 [2] of under 0.1 µM.

With `C[C@@]1(C#N)COCc2c(F)cc(C(=O)NCc3cc4nc(-c5ccccc5)ccc4cn3)cc21` [Compound 400] the pIC50 [1] was 6.00 to 6.30, the Emax [1] was 68% and the “BRM Max % Inhibition” value [2] was 96%. The IC50 [2] was 0.1 to 0.5 µM.

For `C[C@@]1(F)COCc2ccc(C(=O)NCc3cc4nc(-c5cncc(N6CCC6)n5)ccc4cn3)cc21` [Compound 401], the pIC50 [1] was 6.30 to 7.00, the Emax [1] was 91% and the “BRM Max % Inhibition” value [2] was 97%. The IC50 [2] was under 0.1 µM.

For `C[C@@]1(C#N)COCc2ccc(C(=O)NCc3cc4c(cn3)CCN(c3cccc(N5CCC5)n3)C4)cc21` [Compound 402], the pIC50 [1] was 6.00 to 6.30, the Emax [1] was 74% and the “BRM Max % Inhibition” value [2] was 96%. For the same molecule, the IC50 [2] was under 0.1 µM.

With `C[C@@]1(C#N)COCc2ccc(C(=O)NCc3cc4nc(-c5ccnc(N6CC7(COC7)C6)n5)ccc4cn3)cc21` [Compound 403] the pIC50 [1] was 6.30 to 7.00, the Emax [1] was 91% and the “BRM Max % Inhibition” value [2] was 99%. It also gave an IC50 [2] of under 0.1 µM.

`C[C@@]1(C#N)COCc2ccc(C(=O)NCc3cc4nc(-c5cncc(N6CC(F)(F)C6)n5)ccc4cn3)cc21` [Compound 404] was tested, and the pIC50 [1] was 6.30 to 7.00, the Emax [1] was 78% and the “BRM Max % Inhibition” value [2] was 93%. For the same molecule, the IC50 [2] was 0.1 to 0.5 µM.

`C[C@@]1(C#N)COCc2ccc(C(=O)NCc3cc4nc(-c5cnn6c5OCCC6)ccc4cn3)cc21` [Compound 405] was tested, and the pIC50 [1] was 6.00 to 6.30, the Emax [1] was 55% and the “BRM Max % Inhibition” value [2] was 85%. It also gave an IC50 [2] of 0.1 to 0.5 µM.

For `C[C@@]1(C#N)COCc2ccc(C(=O)NCc3cc4nc(-c5cncc(C6CC6)n5)ccc4cn3)cc21` [Compound 406], the pIC50 [1] was 6.30 to 7.00, the Emax [1] was 93% and the “BRM Max % Inhibition” value [2] was 100%. It also gave an IC50 [2] of under 0.1 µM.

With `CN(C)c1cncc(-c2ccc3cnc(CNC(=O)c4ccc5c(c4)[C@](C)(C#N)COC5)cc3n2)n1` [Compound 407] the pIC50 [1] was 6.30 to 7.00, the Emax [1] was 97% and the “BRM Max % Inhibition” value [2] was 99%. For the same molecule, the IC50 [2] was under 0.1 µM.
